Data taken from ChEMBL document CHEMBL1150318, “Discovery of a novel, orally active himbacine-based thrombin receptor antagonist (SCH 530348) with potent antiplatelet activity” (J Med Chem, 2008).
Values belong to the compound of their own block, whether it stands above or below them. Calls of active or inactive are those of the source. No cut-off for these calls is given here.

Legend:
[1] = AUC (0 to 24 hrs) in cynomolgus monkey at 1 mg/kg, po after >24 hrs; assay type: ADME, organism-based, Macaca fascicularis; design: time < 24 hr, dose 1 mg/kg, route oral; settings: plasma
Platelet [2] = assay: Ex vivo inhibition of haTRAP-induced platelet aggregation in cynomolgus monkey at 1 mg/kg after >24 hrs by impedance aggregometry; assay type: functional; settings: Macaca fascicularis
[3] = molecular target: T1, Proteinase-activated receptor 1 (Homo sapiens, UniProt P25116); assay: Displacement of [3H]haTRAP from PAR1 in human platelets
T1 sequence (P25116 whole entry): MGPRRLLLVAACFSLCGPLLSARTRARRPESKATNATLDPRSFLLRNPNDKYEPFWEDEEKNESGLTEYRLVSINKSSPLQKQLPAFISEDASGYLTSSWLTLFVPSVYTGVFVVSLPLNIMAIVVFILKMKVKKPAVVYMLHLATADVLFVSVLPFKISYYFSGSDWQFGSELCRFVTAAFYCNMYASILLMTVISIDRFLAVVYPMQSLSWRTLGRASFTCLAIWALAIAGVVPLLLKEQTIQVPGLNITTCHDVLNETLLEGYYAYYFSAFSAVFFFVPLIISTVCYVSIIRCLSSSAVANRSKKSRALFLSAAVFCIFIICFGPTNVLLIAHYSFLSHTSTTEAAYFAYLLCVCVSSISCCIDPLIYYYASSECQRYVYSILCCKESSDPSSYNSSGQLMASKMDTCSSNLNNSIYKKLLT

[4] = Cmax in cynomolgus monkey at 1 mg/kg, po after >24 hrs; assay type: ADME, organism-based, Macaca fascicularis; design: dose 1 mg/kg, route oral; settings: in vivo
[5] = Cmax in monkey 1 mg/kg, po; assay type: ADME, organism-based, Macaca mulatta; design: dose 1 mg/kg, route oral; settings: rhesus monkey, in vivo
[6] = Cmax in cynomolgus monkey at 0.1 mg/kg, po after >24 hrs; assay type: ADME, organism-based, Macaca fascicularis; design: dose 0.1 mg/kg, route oral; settings: in vivo
Platelet [7] = assay: Ex vivo inhibition of haTRAP-induced platelet aggregation in cynomolgus monkey at 0.3 mg/kg, po after 24 hrs by impedance aggregometry; assay type: functional; settings: Macaca fascicularis
[8] = Inhibition of […] in human liver microsomes at 90 uM; assay type: ADME, Microsome
Plasma [9] = assay: Anticoagulant activity in human plasma assessed as activated partial thromboplastin time; assay type: functional, cell-free
[10] = AUC (0 to 24 hrs) in cynomolgus monkey at 0.1 mg/kg, po after >24 hrs; assay type: ADME, organism-based, Macaca fascicularis; design: time < 24 hr, dose 0.1 mg/kg, route oral; settings: plasma
[11] = Oral absorption in rat 10 mg/kg, po; assay type: ADME, organism-based; design: dose 10 mg/kg, route oral; settings: in vivo, read-out: Fabs
[12] = Half life in monkey 1 mg/kg, iv; assay type: ADME, organism-based, Macaca mulatta; design: dose 1 mg/kg, route intravenous; settings: rhesus monkey, in vivo
Cytochrome P450 1A2 = molecular target: T2, Cytochrome P450 1A2 (Homo sapiens, UniProt P05177); assay: Inhibition of CYP1A2 in human liver microsomes at 90 uM; assay type: ADME, Microsome
T2 sequence (P05177 whole entry): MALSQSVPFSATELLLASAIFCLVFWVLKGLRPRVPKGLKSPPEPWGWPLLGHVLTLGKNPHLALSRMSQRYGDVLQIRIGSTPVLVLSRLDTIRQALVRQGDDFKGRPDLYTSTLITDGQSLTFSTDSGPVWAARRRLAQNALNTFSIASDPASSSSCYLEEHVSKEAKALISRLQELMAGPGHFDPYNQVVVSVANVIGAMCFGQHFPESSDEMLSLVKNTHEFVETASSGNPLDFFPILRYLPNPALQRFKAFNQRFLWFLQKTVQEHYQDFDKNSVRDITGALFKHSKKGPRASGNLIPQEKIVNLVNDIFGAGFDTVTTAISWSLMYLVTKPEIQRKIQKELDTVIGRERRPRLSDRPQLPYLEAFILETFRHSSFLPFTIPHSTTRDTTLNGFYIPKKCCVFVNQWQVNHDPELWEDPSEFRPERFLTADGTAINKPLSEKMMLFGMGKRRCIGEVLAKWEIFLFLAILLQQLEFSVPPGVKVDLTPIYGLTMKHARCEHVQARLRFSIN

[13] = AUC (0 to 24 hrs) in rat 10 mg/kg, po; assay type: ADME, organism-based; design: time < 24 hr, dose 10 mg/kg, route oral; settings: plasma
Platelet [14] = assay: Ex vivo inhibition of haTRAP-induced platelet aggregation in cynomolgus monkey at 0.5 mg/kg, po after 24 hrs by impedance aggregometry; assay type: functional; settings: Macaca fascicularis
[15] = molecular target: T3, Proteinase-activated receptor 3 (Homo sapiens) (UniProt O00254); assay: Binding affinity to PAR3
T3 sequence (whole entry): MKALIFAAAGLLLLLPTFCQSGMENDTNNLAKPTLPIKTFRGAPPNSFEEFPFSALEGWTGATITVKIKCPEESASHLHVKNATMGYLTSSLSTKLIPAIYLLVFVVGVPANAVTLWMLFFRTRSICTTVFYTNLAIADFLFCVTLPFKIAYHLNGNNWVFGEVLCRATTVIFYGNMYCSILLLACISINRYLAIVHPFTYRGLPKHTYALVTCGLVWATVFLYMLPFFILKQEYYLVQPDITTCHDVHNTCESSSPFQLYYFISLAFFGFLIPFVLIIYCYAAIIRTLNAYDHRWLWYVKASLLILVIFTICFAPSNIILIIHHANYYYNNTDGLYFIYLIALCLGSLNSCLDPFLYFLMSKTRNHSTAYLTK

[16] = Oral bioavailability in rat 10 mg/kg; assay type: ADME, organism-based; settings: in vivo
Cytochrome P450 2C19 = Cytochrome P450 2C19 (Homo sapiens, UniProt P33261); assay: Inhibition of CYP2C19 in human liver microsomes at 90 uM; assay type: ADME, Microsome
Sequence of Cytochrome P450 2C19 (P33261 whole entry): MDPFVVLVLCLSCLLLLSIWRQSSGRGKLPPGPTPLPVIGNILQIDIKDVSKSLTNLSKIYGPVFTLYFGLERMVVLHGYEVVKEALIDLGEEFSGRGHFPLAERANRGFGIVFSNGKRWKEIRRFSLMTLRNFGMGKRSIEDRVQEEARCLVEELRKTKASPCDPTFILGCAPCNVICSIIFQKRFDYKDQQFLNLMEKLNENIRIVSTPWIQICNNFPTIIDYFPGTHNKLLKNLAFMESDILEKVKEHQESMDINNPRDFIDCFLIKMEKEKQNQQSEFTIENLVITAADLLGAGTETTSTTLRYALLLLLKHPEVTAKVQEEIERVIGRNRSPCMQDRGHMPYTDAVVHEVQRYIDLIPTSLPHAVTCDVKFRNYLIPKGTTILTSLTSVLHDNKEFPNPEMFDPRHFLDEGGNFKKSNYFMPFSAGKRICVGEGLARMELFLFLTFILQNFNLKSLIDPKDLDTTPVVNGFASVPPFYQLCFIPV

Cytochrome P450 3A4 = Cytochrome P450 3A4 (Homo sapiens, UniProt P08684); assay: Inhibition of CYP3A4 in human liver microsomes at 90 uM; assay type: ADME, Microsome
Sequence of Cytochrome P450 3A4 (P08684 whole entry): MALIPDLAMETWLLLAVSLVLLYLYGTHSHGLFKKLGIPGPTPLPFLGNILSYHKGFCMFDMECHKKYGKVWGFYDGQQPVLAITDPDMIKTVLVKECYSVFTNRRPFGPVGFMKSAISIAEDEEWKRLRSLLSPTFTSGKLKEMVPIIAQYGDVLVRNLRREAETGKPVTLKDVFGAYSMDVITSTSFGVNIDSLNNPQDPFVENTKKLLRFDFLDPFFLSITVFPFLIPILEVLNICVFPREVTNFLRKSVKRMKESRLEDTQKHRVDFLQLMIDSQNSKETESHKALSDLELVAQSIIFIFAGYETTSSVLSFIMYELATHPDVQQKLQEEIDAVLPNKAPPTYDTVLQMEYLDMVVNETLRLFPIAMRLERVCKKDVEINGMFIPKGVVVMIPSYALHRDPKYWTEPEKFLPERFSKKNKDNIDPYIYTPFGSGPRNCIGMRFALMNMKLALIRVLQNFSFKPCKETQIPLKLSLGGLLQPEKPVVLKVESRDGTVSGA

[17] = molecular target: Proteinase-activated receptor 2 (Homo sapiens) (UniProt P55085); assay: Binding affinity to PAR2
Sequence of Proteinase-activated receptor 2 (Homo sapiens) (P55085 whole entry): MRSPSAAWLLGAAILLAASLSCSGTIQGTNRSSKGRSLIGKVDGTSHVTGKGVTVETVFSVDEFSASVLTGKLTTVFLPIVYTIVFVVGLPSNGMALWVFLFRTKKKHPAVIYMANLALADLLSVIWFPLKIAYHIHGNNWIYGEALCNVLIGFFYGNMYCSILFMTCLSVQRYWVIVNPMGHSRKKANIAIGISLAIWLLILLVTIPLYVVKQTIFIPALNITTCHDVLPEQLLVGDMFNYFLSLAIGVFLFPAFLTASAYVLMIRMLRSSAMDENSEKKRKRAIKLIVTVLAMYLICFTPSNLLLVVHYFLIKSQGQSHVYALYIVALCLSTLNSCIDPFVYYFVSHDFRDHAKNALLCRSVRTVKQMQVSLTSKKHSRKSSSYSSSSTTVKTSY

Plasma [18] = assay: Anticoagulant activity in human plasma assessed as prothrombin time; assay type: functional, cell-free
[19] = Oral bioavailability in monkey 1 mg/kg; assay type: ADME, organism-based, Macaca mulatta; settings: rhesus monkey, in vivo
[20] = molecular target: T4, Proteinase-activated receptor 4 (Homo sapiens) (UniProt Q96RI0); assay: Activity at PAR4
T4 sequence (whole entry): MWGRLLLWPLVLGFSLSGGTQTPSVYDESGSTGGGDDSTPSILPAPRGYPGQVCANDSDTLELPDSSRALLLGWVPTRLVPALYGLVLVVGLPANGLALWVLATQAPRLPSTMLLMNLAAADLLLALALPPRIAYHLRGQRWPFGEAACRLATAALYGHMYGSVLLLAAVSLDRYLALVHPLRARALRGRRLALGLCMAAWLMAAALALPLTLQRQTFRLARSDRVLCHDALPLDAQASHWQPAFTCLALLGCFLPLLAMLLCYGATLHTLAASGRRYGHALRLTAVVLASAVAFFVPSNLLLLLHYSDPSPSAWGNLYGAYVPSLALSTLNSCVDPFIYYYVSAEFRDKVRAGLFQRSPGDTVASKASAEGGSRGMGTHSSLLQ

[21] = Cmax in rat 10 mg/kg, po; assay type: ADME, organism-based; design: dose 10 mg/kg, route oral; settings: in vivo
Cytochrome P450 2C9 = Cytochrome P450 2C9 (Homo sapiens, UniProt P11712); assay: Inhibition of CYP2C9 in human liver microsomes at 90 uM; assay type: ADME, Microsome
Sequence of Cytochrome P450 2C9 (P11712 whole entry): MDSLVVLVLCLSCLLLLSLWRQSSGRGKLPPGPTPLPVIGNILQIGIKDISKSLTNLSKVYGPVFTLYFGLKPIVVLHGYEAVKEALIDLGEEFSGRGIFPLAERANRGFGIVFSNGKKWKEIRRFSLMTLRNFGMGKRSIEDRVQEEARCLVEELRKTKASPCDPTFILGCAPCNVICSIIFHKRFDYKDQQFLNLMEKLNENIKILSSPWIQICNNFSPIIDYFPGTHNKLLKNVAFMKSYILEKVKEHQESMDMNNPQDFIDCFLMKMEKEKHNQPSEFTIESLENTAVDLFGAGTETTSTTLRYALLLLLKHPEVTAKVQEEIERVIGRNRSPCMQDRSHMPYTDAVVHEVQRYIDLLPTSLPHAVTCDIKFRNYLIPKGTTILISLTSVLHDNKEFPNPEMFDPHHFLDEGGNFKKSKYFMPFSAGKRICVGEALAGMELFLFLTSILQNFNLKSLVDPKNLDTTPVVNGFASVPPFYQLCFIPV

[22] = Half life in rat 10 mg/kg, iv; assay type: ADME, organism-based; design: dose 10 mg/kg, route intravenous; settings: in vivo
[23] = Tmax in rat 10 mg/kg, po; assay type: ADME, organism-based; design: dose 10 mg/kg, route oral; settings: in vivo
[24] = molecular target: T1, Proteinase-activated receptor 1; assay: Antagonist activity at human PAR1 in HCASMC assessed as inhibition of thrombin-induced calcium efflux; assay type: functional
[25] = Tmax in monkey 1 mg/kg, po; assay type: ADME, organism-based, Macaca mulatta; design: dose 1 mg/kg, route oral; settings: rhesus monkey, in vivo
[26] = Oral absorption in monkey 1 mg/kg, po; settings: rhesus monkey, in vivo, read-out: Fabs
[27] = AUC (0 to 24 hrs) in monkey 1 mg/kg, po; assay type: ADME, organism-based, Macaca mulatta; design: time < 24 hr, dose 1 mg/kg, route oral; settings: rhesus monkey, plasma
Platelet [28] = assay: Ex vivo inhibition of haTRAP-induced platelet aggregation in cynomolgus monkey at 0.1 mg/kg after >24 hrs by impedance aggregometry; assay type: functional; settings: Macaca fascicularis

AUC(0-t) at 24 h [1]: 5.03 µM·h | Ki [3]: 13 nM | Cmax [4]: 0.33 µM
SMILES: CCOC(=O)N[C@@H]1CC[C@@H]2[C@@H](C1)C[C@H]1C(=O)O[C@H](C)[C@H]1[C@H]2/C=C/c1ccc(-c2cccc(C(F)(F)F)c2)cn1
inhibition in vivo at 1 mg/kg (Platelet [2]): 100%

Cmax [5]: 1.3 µM | Cmax [6]: 0.018 µM | Activity [8]: Not Active | AUC(0-t) at 24 h [10]: 0.2 µM·h | Fa [11]: 68% | half-life [12]: 13 h | Activity (Cytochrome P450 1A2): Not Active | AUC(0-t) at 24 h [13]: 5.3 µM·h | Activity [15]: inactive | bioavailability [16]: 33% | Activity (Cytochrome P450 2C19): Not Active | Activity (Cytochrome P450 3A4): Not Active | Activity [17]: inactive | bioavailability [19]: 86% | Activity [20]: inactive | Cmax [21]: 0.67 µM | Activity (Cytochrome P450 2C9): Not Active | half-life [22]: 5.1 h | Tmax [23]: 3 h | Ki [24]: 1.1 nM | Tmax [25]: 1 h | Ki [3]: 8.1 nM | Fa [26]: 82% | AUC(0-t) at 24 h [27]: 10 µM·h
SMILES: CCOC(=O)N[C@@H]1CC[C@@H]2[C@@H](C1)C[C@H]1C(=O)O[C@H](C)[C@H]1[C@H]2/C=C/c1ccc(-c2cccc(F)c2)cn1 [VORAPAXAR]
inhibition in vivo at 0.3 mg/kg (Platelet [7]): 100% | Activity (Plasma [9]): inactive | inhibition in vivo at 0.5 mg/kg (Platelet [14]): 100% | Activity (Plasma [18]): inactive | inhibition in vivo at 0.1 mg/kg (Platelet [28]): 100%
